According to PubChem BioAssay AID1259411 (Chemical Carcinogenesis Research Information System (CCRIS), 2018):
Activity calls are given as the source filed them. No rule for the calls is given here.

Tested on: rodent carcinogenicity bioassays, tumor incidence
Test: CCRIS carcinogenicity studies
Procedure, shortened: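 Archive of carcinogenicity, mutagenicity, tumor promotion and tumor inhibition results drawn from journals, NCI reports and other sources, expert-reviewed; covers 1985-2011 and is no longer updated.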

Clc1cc2c(c(Cl)c1Cl)Oc1cc(Cl)c(Cl)c(Cl)c1O2
carcinogen call (Species: MOUSE, Strain/Sex: B6C3F1/FEMALE, Route: GAVAGE, Dose: 0, 2.5, 5.0, 10.0 UG/KG/WK (9:1 CORN OIL-ACETONE, 2 D/WK) FOR 104 WK (STUDY DURATION: 105-108 WK), Dose: 0, 2.5, 5.0, 10.0 UG/KG/WK (9:1 CORN OIL-ACETONE, 2 D/WK) FOR 104 WK (STUDY DURATION: 105-108 WK), Tumor Site: Type of Lesion: LIVER: HEPATOCELLULAR ADENOMA OR CARCINOMA): active; positive | carcinogen call (Species: MOUSE, Strain/Sex: B6C3F1/MALE, Route: GAVAGE, Dose: 0, 1.25, 2.5, 5 UG/KG/WK (9:1 CORN OIL-ACETONE, 2 D/WK) FOR 104 WK (STUDY DURATION: 105-108 WK), Dose: 0, 1.25, 2.5, 5 UG/KG/WK (9:1 CORN OIL-ACETONE, 2 D/WK) FOR 104 WK (STUDY DURATION: 105-108 WK), Tumor Site: Type of Lesion: LIVER: HEPATOCELLULAR ADENOMA, CARCINOMA): active; positive | carcinogen call (Species: MOUSE, Strain/Sex: SWISS/FEMALE, Route: DERMAL, Dose: 0, 0.01 UG (SUSPENDED IN 0.1 ML ACETONE APPLIED 3 DAYS/WK)): inactive; negative | carcinogen call (Species: MOUSE, Strain/Sex: SWISS/MALE, Route: DERMAL, Dose: 0, 0.01 UG (SUSPENDED IN 0.1 ML ACETONE APPLIED 3 DAYS/WK)): inactive; negative | carcinogen call (Species: RAT, Strain/Sex: OSBORNE-MENDEL/FEMALE, Route: GAVAGE, Dose: 0, 1.25, 2.5, 5 UG/KG/WK (9:1 CORN OIL-ACETONE, 2 D/WK) FOR 104 WK (STUDY DURATION: 105-108 WK), Dose: 0, 1.25, 2.5, 5 UG/KG/WK (9:1 CORN OIL-ACETONE, 2 D/WK) FOR 104 WK (STUDY DURATION: 105-108 WK), Tumor Site: Type of Lesion: LIVER: NEOPLASTIC NODULE, HEPATOCELLULAR CARCINOMA): active; positive | carcinogen call (Species: RAT, Strain/Sex: OSBORNE-MENDEL/MALE, Route: GAVAGE, Dose: 0, 1.25, 2.5, 5 UG/KG/WK (9:1 CORN OIL-ACETONE, 2 D/WK) FOR 104 WK (STUDY DURATION: 105-108 WK), Dose: 0, 1.25, 2.5, 5 UG/KG/WK (9:1 CORN OIL-ACETONE, 2 D/WK) FOR 104 WK (STUDY DURATION: 105-108 WK), Tumor Site: Type of Lesion: LIVER: NEOPLASTIC NODULE, HEPATOCELLULAR CARCINOMA): equivocal

C[C@]12CC[C@@H]3c4ccc(OC(=O)c5ccccc5)cc4CC[C@H]3[C@@H]1CC[C@@H]2O
carcinogen call (Species: MOUSE, Route: SUBCUTANEOUS, Tumor Site: Type of Lesion: TESTES, PITUITARY GLAND, CERVIX, UTERUS, Tumor Site: Type of Lesion: TESTES, PITUITARY GLAND, CERVIX, UTERUS): active; positive | carcinogen call (Species: RAT, Route: SUBCUTANEOUS IMPLANT, Tumor Site: Type of Lesion: PITUITARY GLAND): active; positive

Oc1ccccc1O
carcinogen call (Species: MOUSE, Strain/Sex: B6C3F1/FEMALE, Route: ORAL, Dose: 0, 0.8% IN DIET FOR 96 WK (STUDY DURATION: 96 WK), Tumor Site: Type of Lesion: GLANDULAR STOMACH: ADENOMA): active; positive | carcinogen call (Species: MOUSE, Strain/Sex: B6C3F1/FEMALE, Route: ORAL, Dose: 0, 0.8% IN POWDERED BASAL DIET FOR 96 WK (STUDY DURATION: 96 WK)): inactive; negative | carcinogen call (Species: MOUSE, Strain/Sex: B6C3F1/MALE, Route: ORAL, Dose: 0, 0.8% IN DIET FOR 96 WK (STUDY DURATION: 96 WK), Tumor Site: Type of Lesion: GLANDULAR STOMACH: ADENOMA): active; positive | carcinogen call (Species: MOUSE, Strain/Sex: B6C3F1/MALE, Route: ORAL, Dose: 0, 0.8% IN POWDERED BASAL DIET FOR 96 WK (STUDY DURATION: 96 WK)): inactive; negative | carcinogen call (Species: RAT, Strain/Sex: F344/FEMALE, Route: ORAL, Dose: 0, 0.8% IN DIET FOR 104 WK (STUDY DURATION: 104 WK), Tumor Site: Type of Lesion: GLANDULAR STOMACH: ADENOMA, ADENOCARCINOMA): active; positive | carcinogen call (Species: RAT, Strain/Sex: F344/FEMALE, Route: ORAL, Dose: 0, 0.8% IN POWDERED BASAL DIET FOR 104 WK (STUDY DURATION: 104 WK), Tumor Site: Type of Lesion: GLANDULAR STOMACH: ADENOCARCINOMA): active; positive | carcinogen call (Species: RAT, Strain/Sex: F344/FEMALE, Route: ORAL, Dose: 0, 2% IN DIET FOR 104 WK (STUDY DURATION: 104 WK), Tumor Site: Type of Lesion: GLANDULAR STOMACH: ADENOCARCINOMA): active; positive | carcinogen call (Species: RAT, Strain/Sex: F344/MALE, Route: ORAL, Dose: 0, 0.1, 0.2, 0.4, 0.8% IN DIET FOR 104 WK (STUDY DURATION: 104 WK), Dose: 0, 0.1, 0.2, 0.4, 0.8% IN DIET FOR 104 WK (STUDY DURATION: 104 WK), Tumor Site: Type of Lesion: GLANDULAR STOMACH: ADENOMA, PANCREAS: ACINAR CELL ADENOMA): active; positive | carcinogen call (Species: RAT, Strain/Sex: F344/MALE, Route: ORAL, Dose: 0, 0.16% IN DIET FOR DURATION OF STUDY (STUDY DURATION: 104 WK), Tumor Site: Type of Lesion: GLANDULAR STOMACH: ADENOMA): active; positive | carcinogen call (Species: RAT, Strain/Sex: F344/MALE, Route: ORAL, Dose: 0, 0.8% IN DIET FOR 12, 24, 48, 72, OR 96 WK FOLLOWED BY BASAL DIET FOR 84, 72, 48, 24, AND 0 WK RESPECTIVELY (STUDY DUR, Tumor Site: Type of Lesion: STOMACH: ADENOMA, ADENOCARCINOMA): active; positive | carcinogen call (Species: RAT, Strain/Sex: F344/MALE, Route: ORAL, Dose: 0, 0.8% IN DIET FOR 104 WK (STUDY DURATION: 104 WK), Tumor Site: Type of Lesion: GLANDULAR STOMACH: ADENOMA, ADENOCARCINOMA): active; positive | carcinogen call (Species: RAT, Strain/Sex: F344/MALE, Route: ORAL, Dose: 0, 0.8% IN POWDERED BASAL DIET FOR 104 WK (STUDY DURATION: 104 WK), Tumor Site: Type of Lesion: GLANDULAR STOMACH: ADENOCARCINOMA): active; positive | carcinogen call (Species: RAT, Strain/Sex: F344/MALE, Route: ORAL, Dose: 0, 2% IN DIET FOR 104 WK (STUDY DURATION: 104 WK), Tumor Site: Type of Lesion: GLANDULAR STOMACH: ADENOCARCINOMA): active; positive | carcinogen call (Species: RAT, Strain/Sex: LEWIS/MALE, Route: ORAL, Dose: 0, 0.8% IN DIET FOR 104 WK (STUDY DURATION: 104 WK), Tumor Site: Type of Lesion: GLANDULAR STOMACH: ADENOMA, ADENOCARCINOMA): active; positive | carcinogen call (Species: RAT, Strain/Sex: SPRAGUE-DAWLEY/MALE, Route: ORAL, Dose: 0, 0.8% IN DIET FOR 104 WK (STUDY DURATION: 104 WK), Tumor Site: Type of Lesion: GLANDULAR STOMACH: ADENOMA, ADENOCARCINOMA, FORESTOMACH: PAPILLOMA): active; positive | carcinogen call (Species: RAT, Strain/Sex: WISTAR/MALE, Route: ORAL, Dose: 0, 0.8% IN DIET FOR 104 WK (STUDY DURATION: 104 WK), Tumor Site: Type of Lesion: GLANDULAR STOMACH: ADENOMA, ADENOCARCINOMA): active; positive | carcinogen call (Species: RAT, Strain/Sex: WKY/MALE, Route: ORAL, Dose: 0, 0.8% IN DIET FOR 104 WK (STUDY DURATION: 104 WK), Tumor Site: Type of Lesion: GLANDULAR STOMACH: ADENOMA): active; positive

O=C(C1CCCCC1)N1CC(=O)N2CCc3ccccc3C2C1 (configuration not stated)
carcinogen call (Species: HAMSTER, Strain/Sex: SYRIAN/MALE, Route: GAVAGE, Dose: 0, 300 MG/KG IN CORN OIL 1/5 WK FOR A TOTAL OF 5 DOSES (STUDY DURATION: 40 WK)): inactive; negative

CCO[Si](CCCOCC1CO1)(OCC)OCC (configuration not stated)
carcinogen call (Species: MOUSE, Strain/Sex: C3H/MALE, Route: DERMAL, Dose: 0, 2 MG IN ACETONE 3/WK FOR DURATION OF STUDY (STUDY DURATION: LIFETIME)): inactive; negative
